Assays:
CDK7/Cyclin H/MNAT1 = CDK7/Cyclin H/MNAT1 (Homo sapiens, UniProt P50613); test: Inhibition of CDK7/Cyclin H/MNAT1 kinase activity (ADP-Glo); type: biochemical; conditions: mean value from several measurements; read-out: IC50 CDK7/Cyclin H/MNAT
Experimental: (§1) Measurements were carried out in a 5 μl reaction volume using a 384-well plate (Corning Inc., order no. 4513). The analyzed substances were titrated from 50 μM in increments of 4 at 11 concentration points in a normal strength kinase buffer A (Thermo Fisher Scientific Inc, cat. no. PV3189) supplemented with DTT (Sigma, orde. no. 646563-10X.5ML) and prepared with water (Panreac, order no. 701074). Kinase was diluted in an analogous buffer, mixed with test compounds in plate wells and preincubated for 10 minutes at 25° C. Following incubation, a mixture of reaction substrate (CDKtide (SignalChem, order no. C06-58) or Histone H1 (SignalChem, order no. H10-54N) or PDKtide (SignalChem, order no. P10-58) and ATP (SignalChem, order no. V915B) prepared on a normal strength kinase buffer A was added. 1% solution of dimethyl sulfoxide (DMSO) (Sigma-Aldrich, order no. D2438) in the reaction volume was used as a negative control. The final concentrations of all reaction components are shown in Table 5. The plate was centrifuged at 400 rcf (Eppendorf, 5804 R) for 1 minute and incubated for 40-60 minutes at 25° C. The amount of ATP consumed in the kinase reaction was then measured using the ADP-Glo™ detection system. Luminescence signal was measured using Spark 20M tablet multifunction reader (Tecan Group Ltd, Switzerland). IC50 value was calculated using Magellan 7.2 (Tecan Group Ltd, Switzerland) by approximating experimental points by four-parameter model with the optimization by Levenberg-Marquardt:
(§2) [formula] • where A is the upper asymptote; D is the lower asymptote; C is IC50, half-maximal inhibitory concentration of kinase, nM; B is the curvature (slope).

CDK2/Cyclin A = CDK2/Cyclin A (Homo sapiens, UniProt P24941); test: Inhibition of CDK2/Cyclin A kinase activity (ADP-Glo); type: biochemical; conditions: mean value from several measurements; read-out: IC50 CDK2/Cyclin A
Experimental: as §1, §2

CDK9/Cyclin K = CDK9/Cyclin K (Homo sapiens, UniProt P50750); test: Inhibition of CDK9/Cyclin K kinase activity (ADP-Glo); type: biochemical; conditions: mean value from several measurements; read-out: IC50 CDK9/Cyclin K
Sequence of CDK9/Cyclin K (P50750 whole entry): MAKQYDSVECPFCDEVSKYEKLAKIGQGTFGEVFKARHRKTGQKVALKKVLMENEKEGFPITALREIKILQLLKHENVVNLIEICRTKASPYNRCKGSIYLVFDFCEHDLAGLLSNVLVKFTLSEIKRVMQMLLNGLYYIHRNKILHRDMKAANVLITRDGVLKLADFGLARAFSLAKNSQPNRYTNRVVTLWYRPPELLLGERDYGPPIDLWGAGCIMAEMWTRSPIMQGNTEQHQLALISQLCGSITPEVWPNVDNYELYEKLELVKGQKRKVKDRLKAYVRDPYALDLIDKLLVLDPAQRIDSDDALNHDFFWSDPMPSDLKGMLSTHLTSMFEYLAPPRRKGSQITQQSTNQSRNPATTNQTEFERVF
Sequence of CDK9/Cyclin K (O75909 whole entry partner): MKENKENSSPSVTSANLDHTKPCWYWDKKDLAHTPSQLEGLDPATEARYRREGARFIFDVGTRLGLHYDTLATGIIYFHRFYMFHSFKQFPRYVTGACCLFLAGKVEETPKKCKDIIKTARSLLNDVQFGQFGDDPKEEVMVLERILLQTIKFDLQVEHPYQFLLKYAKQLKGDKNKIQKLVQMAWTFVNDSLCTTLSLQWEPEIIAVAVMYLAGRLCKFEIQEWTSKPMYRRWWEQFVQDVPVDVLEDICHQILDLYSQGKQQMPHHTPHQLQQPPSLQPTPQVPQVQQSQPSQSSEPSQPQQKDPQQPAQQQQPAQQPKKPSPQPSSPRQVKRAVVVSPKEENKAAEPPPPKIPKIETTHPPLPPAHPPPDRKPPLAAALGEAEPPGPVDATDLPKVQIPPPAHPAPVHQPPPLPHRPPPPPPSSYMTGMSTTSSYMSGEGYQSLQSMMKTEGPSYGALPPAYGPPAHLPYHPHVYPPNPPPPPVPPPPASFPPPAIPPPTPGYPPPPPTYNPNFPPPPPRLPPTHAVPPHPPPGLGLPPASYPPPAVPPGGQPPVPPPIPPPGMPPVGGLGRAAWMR
Experimental: as §1, §2

[1] = tested on: MDA-MB-468 (triple negative breast cancer); test: Antiproliferative assay on MDA-MB-468 cells (AlamarBlue, 96 h); type: cell-based; conditions: Homo sapiens, mean value from several measurements
Experimental: The antiproliferative activity of CDK7 inhibitors according to the present invention was evaluated in a cell test using continuous cell cultures: MDA-MB-468 (triple negative breast cancer, ATCC® HTB-132™) and NCl-H82 (small cell lung cancer, ATCC® HTB-175™) using a viable AlamarBlue dye (Thermo Fisher Scientific Inc, order no. DAL1100). The cells were grown in DMEM (PanEco, order no. C330π) and RPMI-1640 (PanEco, order no. C330π), respectively. The basal growth medium was enriched with L-glutamine at a concentration of 2 mM (PanEco, order no. Φ032) and 10% fetal bovine serum (Gibco, order no. 16140-071). The night before measurement, MDA-MB-468 adherent cells were detached from plastic with a solution of trypsin-EDTA (PanEco, order no. Π039π), the solution was then inactivated by a DMEM complete medium, centrifuged at 1000 RPM (Eppendorf, 5804 R), a suspension of cells was prepared in a DMEM complete medium, introduced into 96-well culture plates (Corning Inc, order no. 3599) at 8×10^3 cells in 100 μl of medium per well. The next day, test compounds were dissolved in DMSO and diluted with a DMEM complete medium to a final concentration ranging from 50 μM to 10 pM. Diluted compounds in a volume of 50 μl were introduced into the plate wells with cells in triplicates (the final concentration of DMSO was no more than 1%) and incubated at 37° C. in an incubator with 5% CO2 for 96 hours. NCl-H82 suspension cell line was prepared on the day of the analysis. 10×10^3 cells in 100 μl of an RPMI-1640 complete medium were added to each well of a 96-well plate. The procedure for sample dilution is as described above. Cells with test compounds were incubated at 37° C. in an incubator with 5% CO2 for 120 hours. Following incubation, […] of AlamarBlue reagent (Thermo Fisher Scientific Inc., order no. DAL1100) was added to the wells, the contents of the plates were stirred in an orbital shaker (Biosan, Latvia), then further incubated for 5.5-6 hours at 37° C. in an incubator with 5% CO2. The number of viable cells was detected using the Infinite M200Pro microplate spectrophotometer (Tecan Group Ltd, Switzerland) by way of measuring a fluorescent signal at an excitation wavelength (λEx) of 540 nm and an emission wavelength (λEm) of 590 nm.
IC50 value was calculated using the Magellan software (Tecan Group Ltd, Switzerland) by approximating experimental points by four-parameter model with the optimization by Levenberg-Marquardt: […]

[2] = General cytotoxicity on primary differentiated HepaRG cells (72 h); type: cell-based; conditions: human, general toxicity, mean value from several measurements
Text: General cytotoxicity of CDK7 inhibitors according to the present invention was investigated using primary differentiated HepaRG cells (Biopredic Int, order no. HPR101). A week before the measurement, the cells were thawed and maintained in Basal hepatic cell medium (Biopredic Int, order no. MIL700079) supplemented with HepaRG maintenance/metabolism medium supplement with antibiotics (Biopredic Int, order no. ADD620C). The medium in vials with cells was changed every 2-3 days. The night before the test, the cells were plated in wells of 96-well plates (Corning Inc., order no. 3599) at 25×10^3 cells in 100 μl of medium per well. The next day, test compounds were introduced into plate wells with cells, untitrated at a concentration ranging from 200 μM to 0.2 nM, and incubated for 72 hours. Cell viability was assessed as described above.

[3] = Passive membrane permeability through PAMPA artificial membrane, pH 7.4; type: in vitro ADME; conditions: pH 7.4, 10 μmol, 20 hours at room temperature, mean of multiple measurements, read-out: PAMPA passive permeability Pe
Experimental: Passive membrane permeability of the compounds described in the present invention was determined using the PAMPA (parallel artificial membrane permeability assay) model at pH 7.4.
We used a 96-well plate (Corning® BioCoat® Pre-coated PAMPA Plate System, order no. 353015), composed of acceptor and donor parts with cell membrane-modeling PVDF filter pre-impregnated with a lecithin-phospholipid bilayer. The substance (at a concentration of 10 μmol) in a 0.01 M phosphate buffer with pH 7.4 was introduced into a donor well of the plate, and pure buffer was introduced into an acceptor well; afterwards, the both parts were combined and incubated for 20 hours at room temperature so that the compound was redistributed between the two wells and the membrane. Verapamil (USP, USA, order no. 1711202) and propranolol (MCE LLC, USA, cat. no. HY-B0573/CS-2680) were used as control compounds with high and medium permeability. Samples were analyzed by reversed-phase HPLC with UV detection (Agilent 1260 chromatograph with UV detector) by determining their peak areas in the donor and acceptor wells.
Permeability (Pe, cm/s) and retention factor (R, %) in the lipid bilayer were calculated using the formula:
[formula] [formula] • Co is donor-well concentration of the substance at the initial moment of time t (μM); • CA (t) is acceptor-well concentration of the substance at time t (μM); • Vd is donor-well volume (0.3 ml); • Va is acceptor-well volume (0.15 ml).
[formula] • A is filter area (0.3 cm^2); • t is incubation time (72000 s);

Sequence of CDK7/Cyclin H/MNAT1 (P50613 whole entry): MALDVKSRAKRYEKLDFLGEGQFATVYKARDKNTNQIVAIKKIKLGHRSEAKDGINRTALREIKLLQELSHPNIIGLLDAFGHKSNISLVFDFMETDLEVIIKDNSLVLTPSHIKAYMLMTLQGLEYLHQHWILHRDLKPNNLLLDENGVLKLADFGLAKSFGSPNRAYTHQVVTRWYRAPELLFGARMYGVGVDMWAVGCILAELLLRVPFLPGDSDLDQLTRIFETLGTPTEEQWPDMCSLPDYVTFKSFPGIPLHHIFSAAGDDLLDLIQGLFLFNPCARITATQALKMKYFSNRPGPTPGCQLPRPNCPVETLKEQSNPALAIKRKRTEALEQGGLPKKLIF
Sequence of CDK7/Cyclin H/MNAT1 (P51946 whole entry partner): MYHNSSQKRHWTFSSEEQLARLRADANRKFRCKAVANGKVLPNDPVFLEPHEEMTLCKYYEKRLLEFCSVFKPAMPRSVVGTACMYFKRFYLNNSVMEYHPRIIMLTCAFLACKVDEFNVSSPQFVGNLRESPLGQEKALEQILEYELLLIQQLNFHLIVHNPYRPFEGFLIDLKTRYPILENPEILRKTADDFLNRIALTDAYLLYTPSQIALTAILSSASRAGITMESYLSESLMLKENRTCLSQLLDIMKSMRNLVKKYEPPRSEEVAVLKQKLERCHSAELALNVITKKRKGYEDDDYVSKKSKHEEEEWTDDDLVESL
Sequence of CDK7/Cyclin H/MNAT1 (P51948 whole entry partner): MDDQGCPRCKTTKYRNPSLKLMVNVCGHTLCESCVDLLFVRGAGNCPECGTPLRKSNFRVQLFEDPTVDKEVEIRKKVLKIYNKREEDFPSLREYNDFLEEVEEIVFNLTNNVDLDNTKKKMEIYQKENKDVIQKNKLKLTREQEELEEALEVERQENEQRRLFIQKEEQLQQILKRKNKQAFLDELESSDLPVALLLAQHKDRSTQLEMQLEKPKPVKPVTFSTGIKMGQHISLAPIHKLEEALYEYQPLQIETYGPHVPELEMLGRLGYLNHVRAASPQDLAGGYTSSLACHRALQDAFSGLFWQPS

| Compound | IC50 (CDK7/Cyclin H/MNAT1) [nM] | IC50 (CDK2/Cyclin A) [nM] | IC50 (CDK9/Cyclin K) [nM] | IC50 [1] [nM] | CC50 at 72 h [2] [nM] | Papp at 20 h, 10 μmol [3] [×10⁻⁶ cm/s] |
| --- | --- | --- | --- | --- | --- | --- |
| FC(F)(F)c1cnc(N[C@H]2CCCNC2)nc1-c1c[nH]c(-c2ccccc2)c1 [CDK7_533, 4-(5-phenyl-1H-pyrrol-3-yl)-N-[(3S)-piperidin-3-yl]-5-(trifluoromethyl) pyrimidin-2-amine] | 50 to 200 | > 200 | > 200 | 100 to 1000 | 500 to 2000 | < 1 |
| CN(C)C(=O)c1cc(-c2nc(N[C@H]3CCCNC3)ncc2C(F)(F)F)c[nH]1 [CDK7_536, N,N-dimethyl-4-(2-{[(3S)-piperidin-3-yl]amino}-5-(trifluoromethyl)pyrimidin-4-yl)-1H-pyrrole-2-carboxamide] | < 5 | > 200 | 5 to 50 | 10 to 100 | 500 to 2000 | 1 to 5 |
| FC(F)(F)c1cnc(N[C@H]2CCCNC2)nc1-n1nnc2ccccc21 [CDK7_811, 4-(1H-1,2,3-benzotriazol-1-yl)-N-[(3S)-piperidin-3-yl]-5-(trifluoromethyl)py-rimidin-2-amine] | 5 to 50 | > 200 |  | 100 to 1000 | 500 to 2000 | 5 to 10 |
| O=C(NC1CCC(O)CC1)c1cc(-c2nc(N[C@H]3CCCNC3)ncc2C(F)(F)F)c[nH]1 (stereo partly drawn) [CDK7_851, N-(4-hydroxycyclo-hexyl)-4-(2-{[(3S)-piperidin-3-yl]amino}-5-(trifluoromethyl)pyrimidin-4-yl)-1H-pyrrole-2-carboxamide] | 5 to 50 | > 200 | 50 to 200 | > 1000 | > 2000 |  |
| Cc1ccc(P(C)(C)=O)c(Nc2nc(N[C@H]3CCCNC3)ncc2C(F)(F)F)c1 [CDK7_903, N4-[2-(dimethylphos-phoryl)-5-methylphenyl]-N2-[(3S)-piperidin-3-yl]-5-(trifluoromethyl) pyrimidine-2,4-diamine] | 5 to 50 | > 200 | > 200 |  |  | < 1 |
| CN(C)C(=O)c1nc(-c2nc(N[C@H]3CCCNC3)ncc2C(F)(F)F)c[nH]1 [CDK7_966, N,N-dimethyl-4-(2-{[(3S)-piperidin-3-yl]amino}-5-(trifluoromethyl)py-rimidin-4-yl)-1H-imidazole-2-carboxamide] | 5 to 50 | > 200 | > 200 | 100 to 1000 | > 2000 |  |
| FC(F)(F)c1cnc(N[C@H]2CCCNC2)nc1-c1cc[nH]c1 [CDK7_972, N-[(3S)-piperidin-3-yl]-4-(1H-pyrrol-3-yl)-5-(trifluoromethyl)py-rimidin-2-amine] | 5 to 50 | > 200 | 50 to 200 | 100 to 1000 | 500 to 2000 |  |
| O=C(NCc1ccccc1)c1cc(-c2nc(N[C@H]3CCCNC3)ncc2C(F)(F)F)c[nH]1 [CDK7_997, N-benzyl-4-(2-{[(3S)-piperidin-3-yl]amino}-5-(trifluoromethyl)pyrimidin-4-yl)-1H-pyrrole-2-carboxamide] | 5 to 50 | > 200 | 50 to 200 | 100 to 1000 | 500 to 2000 |  |
| CN(Cc1ccccc1)C(=O)c1cc(-c2nc(N[C@H]3CCCNC3)ncc2C(F)(F)F)c[nH]1 [CDK7_998, N-benzyl-N-methyl-4-(2-{[(3S)-piperidin-3-yl]amino}-5-(trifluoromethyl)pyrimidin-4-yl)-1H-pyrrole-2-carboxamide] | 5 to 50 | > 200 | > 200 | > 1000 | > 2000 |  |
| CN(C(=O)c1cc(-c2nc(N[C@H]3CCCNC3)ncc2C(F)(F)F)c[nH]1)C1CC1 [CDK7_1001, N-cyclopropyl-N-methyl-4-(2-{[(3S)-piperidin-3-yl]amino}-5-(trifluoromethyl)pyrimidin-4-yl)-1H-pyrrole-2-carboxamide] | < 5 | > 200 | 5 to 50 | 100 to 1000 | 500 to 2000 |  |
| CN(C(=O)c1cc(-c2nc(N[C@H]3CCCNC3)ncc2C(F)(F)F)c[nH]1)c1nccs1 [CDK7_1003, N-methyl-4-(2-{[(3S)-piperidin-3-yl]amino}-5-(trifluoromethyl)pyrimidin-4-yl)-N-(1,3-thiazol-2-yl)-1H-pyrrole-2-carboxamide] | 5 to 50 | > 200 | 50 to 200 | 100 to 1000 | 500 to 2000 |  |
| CN1CCC(=O)c2c(-c3nc(N[C@H]4CCCNC4)ncc3C(F)(F)F)c[nH]c2C1=O [CDK7_1021, 7-methyl-3-(2-{[(3S)-piperidin-3-yl]amino}-5-(trifluoromethyl)py-rimidin-4-yl)-1H,4H,5H,6H,7H, 8H-pyrrolo[2,3-c]azepine-4,8-dione] | 5 to 50 | 5 to 50 | > 200 |  | > 2000 | < 1 |
| O=c1c2[nH]cc(-c3nc(N[C@H]4CCCNC4)ncc3C(F)(F)F)c2ccn1C1CCOCC1 [CDK7_1121] |  |  |  |  | > 2000 | < 1 |

— US20260137698A1, “CYCLIN-DEPENDENT KINASE 7 INHIBITORS” (JOINT STOCK COMPANY «BIOCAD», priority 2022, published 2026)
